Measured values: patent US4535089A, “Alkyloxazolylacetic acid derivative for the treatment of hyperlipidemia” (Tanabe Seiyaku Co., Ltd., priority 1982, dated 1985)

Legend:
platelet aggregation [1] = test: Platelet aggregation-inhibiting activity in vitro (collagen, platelet-rich plasma); format: cell-based, male SD rats; conditions: final concentration 100 μg/ml, rat PRP, 37° C.
Procedure: (§1) Blood was collected from the abdominal aorta of male SD rats (body weight: 250-300 g) which were anesthetized with ether. Nine volumes of said blood were mixed with one volume of an aqueous 3.8% (w/v) trisodium citrate solution, and the mixture was centrifuged at 500×g for 5 minutes to give platelet-rich plasma (hereinafter referred to as "PRP") as the supernatant solution. The bottom layer was further centrifuged at 1000×g for 10 minutes to give platelet-poor plasma (hereinafter referred to as "PPP") as the supernatant solution. PRP was diluted with PPP so that the blood platelet count was 8-10×10^5 cells/mm^3.Then, a mixture of 200 μl of said diluted PRP and 25 μl of a test compound solution (final concentration: 100 μg/ml) was introduced into a glass cell of SIENCO aggregometer (Sienco Inc., Morrison, Colo. Model DP-247-D). After the mixture was stirred at 1100 rpm at 37° C. for 2 minutes, 25 μl of a collagen solution (prepared by Holmsen's method described in Biochim. Biophys. Acta, Vol. 186, page 254(1969)) was added thereto, and the percentage inhibition of platelet aggregation was calculated in accordance with the following formula from the degree of the platelet aggregation which was estimated by Born's method (Nature, 194, page 927(1962)). [formula]

platelet aggregation [2] = test: Platelet aggregation-inhibiting activity after oral administration (ex vivo); format: in vivo; conditions: Rattus norvegicus, 1 h, 100 mg/kg oral, blood collected one hour after administration, SD rats, read-out: Percentage inhibition of platelet aggregation (%)
Procedure: as §1, with “PRP was diluted with PPP so that the blood platelet count was 8-10×10^5 cells/mm^3.Then, a mixture of 200 μl of said diluted PRP and 25 μl of a test compound solution (final concentration: 100 μg/ml) was introduced into a glass cell of SIENCO aggregometer (Sienco Inc., Morrison, Colo. Model DP-247-D).” left out, “[formula]” left out
A test compound was suspended in a solution containing 0.25% of carboxymethylcellulose (sodium salt) and 0.01% of Tween 80, and the suspension was administered orally to make SD rats (a group of 4 rats). […] Thereafter, said blood was treated in the same manner as described in Experiment 2, and the percentage inhibition of platelet aggregation was calculated in accordance with the following formula: [formula]

serum cholesterol = test: Hypolipidemic activity: decrease in serum cholesterol; format: in vivo; conditions: 50 mg % in diet, one week, male SD rats
Procedure: (§2) A test compound (50 mg %) was added to a commercial diet, and male SD rats (body weight: 120-140 g, a group of 5 rats) were fed with the diet ad libitum for one week. After the experimental period, blood was collected from the tail vein of the rats under ether anesthesia. Then, liver was excised from the rats and the weight thereof was measured. On the other hand, serum cholesterol and serum triglyceride were measured according to the methods of Zak (Amer. J. Clin. Pathol., Vol. 24, page 1307(1954)) and Van Handel-Zilversmit (J. Lab. & Clin. Med., Vol. 50, page 152(1957)), respectively. Based on the results obtained above, the decrease (%) in serum cholesterol or triglyceride and increase (%) in liver weight were calculated by the following formulae: [formula]

serum triglyceride = test: Hypolipidemic activity: decrease in serum triglyceride; format: in vivo; conditions: 50 mg % in diet, one week, male SD rats
Procedure: as §2

liver = test: Increase in liver weight (hypolipidemic experiment); format: in vivo; conditions: 50 mg % in diet, one week, male SD rats
Procedure: as §2

mice = test: Acute oral toxicity in mice; format: in vivo; conditions: 1000 mg/kg oral, 7 days after administration
Description: The compound (I) (R^2 =H) of the present invention can be used for pharmaceutical use in the form of either a free acid or a pharmaceutically acceptable salt thereof. Pharmaceutically acceptable salts of the compound (I) (R^2 =H) include, for example, alkali metal salts such as sodium and potassium salts; alkaline earth metal salts such as calcium and magnesium salts; salts thereof with amino acids such as lysine, ornithine, arginine and histidine salts; and ammonium salt. Such pharmaceutically acceptable salts may be prepared, for example, by neutralizing the free acid with a stoichiometrically equimolar amount of a base such as an alkali metal hydroxide, an alkaline earth metal hydroxide, ammonia or a basic amino acid. The compound (I) and a salt thereof can be administered either orally or parenterally. For oral administration, the compound (I) or a salt thereof may be used in the form of tablets, powder, capsules, granules and the like. Known medicinal excipients such as calcium carbonate, calcium phosphate, corn starch, potato starch, sugar, lactose, talc, magnesium stearate and so forth may be used in making these pharmaceutical preparations. Alternatively, the compound (I) or a salt thereof may be used for oral administration in the form of aqueous or oily suspensions, solutions, syrps or elixirs. […]

increase (%) in liver weight (liver) [%]	SMILES	inhibition at 100 µg/mL (platelet aggregation [1]) [%]	inhibition at 100 mg/kg (platelet aggregation [2]) [%]	Decrease (%) in serum cholesterol (serum cholesterol) [%]	Decrease (%) in serum triglyceride (serum triglyceride) [%]	mortality (mice)
	CC(C)c1oc(-c2ccccc2)nc1CC(=O)O [2-(2-phenyl-5-isopropyl-4-oxazolyl)acetic acid]	≥ 10	97 ± 2			
	CC(C)c1oc(-c2ccc(Cl)cc2)nc1CC(=O)O [2-[2-(4-chlorophenyl)-5-isopropyl-4-oxazolyl]acetic acid]	≥ 10		12	39	
	Cc1oc(-c2ccc(Cl)cc2)nc1CC(=O)O [2-[2-(4-chlorophenyl)-5-methyl-4-oxazolyl]acetic acid]			14	48	
	CCCCCc1oc(-c2ccc(Cl)cc2)nc1CC(=O)O [2-[2-(4-chlorophenyl)-5-n-pentyl-4-oxazolyl]acetic acid]			19	60	
	CC(C)Cc1oc(-c2ccc(F)cc2)nc1CC(=O)O [2-[2-(4-fluorophenyl)-5-isobutyl-4-oxazolyl]acetic acid]			11	51	
	CC(C)c1oc(-c2ccc(F)cc2)nc1CC(=O)O [2-[2-(4-fluorophenyl)-5-isopropyl-4-oxazolyl]acetic acid]	≥ 10		21	42	
12	CCOC(=O)C(C)(C)Oc1ccc(Cl)cc1 [Clofibrate, 2-(4-chlorophenoxy)-2-methylpropanoic acid ethyl ester, reference compound]	< 10	53 ± 19	15	16	
	CCOC(=O)Cc1nc(-c2ccc(Cl)cc2)oc1CC(C)C [ethyl 2-[2-(4-chlorophenyl)-5-isobutyl-4-oxazolyl]acetate]	≥ 10				
	CCOC(=O)Cc1nc(-c2ccc(Cl)cc2)oc1C(C)C [ethyl 2-[2-(4-chlorophenyl)-5-isopropyl-4-oxazolyl]acetate]	≥ 10		18	55	
	CCOC(=O)Cc1nc(-c2ccc(Cl)cc2)oc1C [ethyl 2-[2-(4-chlorophenyl)-5-methyl-4-oxazolyl]acetate]			19	36	no mouse dies
	CCCCCc1oc(-c2ccc(Cl)cc2)nc1CC(=O)OCC [ethyl 2-[2-(4-chlorophenyl)-5-n-pentyl-4-oxazolyl]acetate]			15	52	no mouse dies
	CCOC(=O)Cc1nc(-c2ccc(F)cc2)oc1CC(C)C [ethyl 2-[2-(4-fluorophenyl)-5-isobutyl-4-oxazolyl]acetate]	≥ 10		13	66	
	CCOC(=O)Cc1nc(-c2ccc(F)cc2)oc1C(C)C [ethyl 2-[2-(4-fluorophenyl)-5-isopropyl-4-oxazolyl]acetate]	≥ 10		23	33	
